In patent publication US9592223B2, “Small molecule inhibitors of MALT1” (Cornell University, priority 2012, dated 2017):

What was measured:
[1] = target: T1, LZ-MALT1 (MALT1 (340-789) fused with a leucine zipper dimerization motif) (Homo sapiens, UniProt Q9UDY8); assay: LZ-MALT1 fluorescence assay (Ac-LRSR-AMC cleavage), screening and concentration response; format: biochemical
T1 construct: His tag (N); made in house; host or cells: E. coli
Source text: We reasoned that MALT1 small-molecule inhibitors might be useful chemical tools for studying MALT1 biology and treating MALT1 addicted tumors. However, full-length MALT1 and its paracaspase domain (amino acids 340-789) are naturally present in physiological solutions as a monomer, which has very low proteolytic activity. Caspases generally must homodimerize for maximal catalytic activity (Pop et al., 2006; Walker et al., 1994; Yin et al., 2006) and accordingly the recently reported structures of the paracaspase domain of MALT1 in complex with a peptide inhibitor are dimeric (Wiesmann et al., 2012; Yu et al., 2011). […]
Ac-LRSR-AMC was used as substrate and reactions were measured with excitation/emission wavelengths of 360/465 nm. […] The final percent inhibition was calculated with the formula: {[fluorescencetest compound(T2-T1)−fluorescenceneg ctrl(T2−T1)]/[fluorescencepos ctrl(T2−T1)−fluorescenceneg ctrl(T2−T1)]}×100. […]
The screening consisted of a 20 μl reaction in 384-well black plates (Greiner Bio One, Wemmel, Belgium, catalogue #784076) with 100 nM LZ-MALT1, 200 μM Ac-LRSR-AMC, and 12.5 μM test compound in buffer A (20 mM HEPES pH 7.5, 10 mM KCl, 1.5 mM MgCl2, 1 mM EDTA, 1 mM DTT, 0.01% Triton X-100). The reactions were measured with excitation/emission wavelengths of 360/465 nm using Envision Multilabel Reader (Perkin-Elmer, Waltham, Mass.). […]

LZ-MALT1 = target: T2, LZ-MALT1 (Homo sapiens, UniProt Q9UDY8); assay: Dose-effect and time-course of MALT1 inhibition (pre-incubation, then Ac-LRSR-AMC); format: biochemical; settings: pre-incubation 5 to 80 minutes
T2 construct: His tag (N); made in house; host or cells: E. coli
Method: The reactions were monitored in a SpectraMax M5 plate reader (Molecular Devices, Sunnyvale, Calif. USA) with excitation/emission wavelength at 360/465 nm and 20 seconds intervals. Normalized percentage of inhibition was calculated with the following formula: (M(T2-T1)−N(T2-T1))/(P(T2-T1)−N(T2-T1))*100, where M(T2-T1) is the difference signal of compound at time point 200s and 0s, N(T2-T1) is the difference signal of negative control buffer only, P(T2-T1) is the difference signal of positive control Z-VRPR-FMK.

[2] = test system: MALT1 dependent ABC-DLBCL cells HBL-1, TMD8, OCI-Ly3 and OCI-Ly10; assay: Growth inhibition, MALT1 dependent cell lines; format: cell-based, human; settings: 50 μM, 48 hr
Method: (§1) Endogenous MALT1 activity was evaluated by Western blotting for A20, BCL10 and CYLD; and NF-κB activation, by phospho-IκB-α and total IκB-α. Dependence on MALT1 proteolytic activity for proliferation was tested by 50[…]μM Z-VRPR-FMK treatment for 48 hr. […] The U2932 and HLY1 ABC-DLBCL cell lines harbor mutations in TAK1 and A20, which activate NF-κB signaling downstream of MALT1.
(§2) Cell proliferation was determined by ATP quantification using a luminescent method (CellTiter-Glo, Promega, Madison, Wis.) and Trypan blue dye-exclusion (Sigma, St. Louis, Mo.). Cell viability in drug-treated cells was normalized to their respective controls (fractional viability) and results are given as 1-fractional viability. […]
(§3) DLBCL cell lines were grown in exponential growth conditions during the 48 hr of treatment. Cell proliferation was determined by ATP quantification using a luminescent method (CellTiter-Glo, Promega, Madison, Wis.) and Trypan blue dye-exclusion (Sigma, St. Louis, Mo.). Luminescence was measured using the Synergy4 microplate reader (BioTek Instruments, Winooski, Vt.). Standard curves for each cell line were calculated by plotting the cell number (determined by the Trypan blue method) against their luminescence values and number of cells was calculated accordingly. […]

[3] = test system: MALT1^WT NF-κB activation; assay: NF-κB reporter assay in 293T cells, PMA/ionomycin, BCL10 and MALT1 WT; format: cell-based; settings: pre-treatment
Source text: Antigen receptor-mediated NF-κB signaling partly depends on MALT1 activity (Ruefli-Brasse et al., 2003; Ruland et al., 2003). […] First, 293T cells were transfected with the NF-κB reporter vector (NF-κB)5-luc2CP-pGL4 (harboring 5 copies of the NF-κB consensus response element and a destabilized Firefly luciferase) and TK-pRL control together with plasmids expressing BCL10 and either MALT1^WT or MALT1^C464A. […] HBL-1 was transfected with the reporter construct (NF-κB)5-luc2CP-pGL4 and TK-pRL control.
Reporter assays were performed in 293T cells seeded at a density of 2×10^5 cells per well of a 12-well dish. 100 ng of (NF-κB)5-Luc2CP-pGL4 and 10 ng of TK-Renilla internal control plasmid were cotransfected along with 25 ng of the indicated plasmids (MIGR1-MALT1^WT or MIGR1-MALT1^C464A and pcDNA4-Flag-Bcl10) using Lipofectamine 2000 (Invitrogen). Lysates were submitted to dual luciferase assays following manufacturer's protocol (Promega). In HBL-1, 5 μg of (NF-κB)5-Luc2CP-pGL4 and 50 ng of TK-Renilla internal control plasmid per 5×10^6 cells were cotransfected using nucleofection (Amaxa, Lonza, Basel, Switzerland). Forty-eight hours after transfection, cells were plated at a density of 5×10^4 cells per well of a 24-well plate and treated as indicated. Lysates were submitted to dual luciferase assays following manufacturer's protocol (Promega).

[4] = test system: GCB-DLBCL cell lines OCI-Ly7 and OCI-Ly1; assay: Growth inhibition, GCB-DLBCL cell lines; format: cell-based, human; settings: 50 μM, 48 hr
Method: as §1, §2, §3

[5] = test system: ABC-DLBCL MALT1 independent cell lines U2932 and HLY-1; assay: Growth inhibition, MALT1 independent ABC-DLBCL cell lines; format: cell-based, human; settings: 50 μM, 48 hr
Method: as §1, §2, §3

c-REL = c-REL flow cytometry of whole cells or isolated nuclei, HBL-1 cells; format: cell-based, human; settings: 200 nM MI-2 or 50 μM Z-VRPR-FMK, 24 hr
Method: MALT1 mediates c-REL translocation to the nucleus following BCR stimulation (Ferch et al., 2007). […] This selectivity towards c-REL had also been previously shown in MALT1 knockout mice and after MALT1 cleavage inhibition by the MALT1 blocking peptide Z-VRPR-FMK (Ferch et al., 2009; Ferch et al., 2007; Hailfinger et al., 2011).
[…] was studied by flow cytometry. Cells were treated as indicated and total cells or isolated nuclei were prepared and stained for c-REL. Total cells were fixed and permeabilized using the Intrastain kit from Dako (Glostrup, Denmark). For nuclei extraction, cells were resuspended in cold nuclei extraction buffer (320 mM sucrose, 5 mM MgCl2, 10 mM HEPES, 1% Triton X-100 at pH 7.4), incubated for 10 min on ice and washed twice with nuclei wash buffer (320 mM sucrose, 5 mM MgCl2, 10 mM HEPES at pH 7.4, no Triton X-100). Nuclei yield and integrity were confirmed by microscopic examination with trypan blue staining. For labeling, nuclei wash buffer was supplemented with 1% BSA, 0.1% sodium azide and 1:100 c-REL antibody (Cell Signaling). Cells were washed then incubated with Alexa Fluor-488 conjugated secondary antibodies from Invitrogen. Cells were washed again and stained with DAPI followed by flow cytometry.

T2 sequence (Q9UDY8 with tags, fused parts or gaps limits assumed): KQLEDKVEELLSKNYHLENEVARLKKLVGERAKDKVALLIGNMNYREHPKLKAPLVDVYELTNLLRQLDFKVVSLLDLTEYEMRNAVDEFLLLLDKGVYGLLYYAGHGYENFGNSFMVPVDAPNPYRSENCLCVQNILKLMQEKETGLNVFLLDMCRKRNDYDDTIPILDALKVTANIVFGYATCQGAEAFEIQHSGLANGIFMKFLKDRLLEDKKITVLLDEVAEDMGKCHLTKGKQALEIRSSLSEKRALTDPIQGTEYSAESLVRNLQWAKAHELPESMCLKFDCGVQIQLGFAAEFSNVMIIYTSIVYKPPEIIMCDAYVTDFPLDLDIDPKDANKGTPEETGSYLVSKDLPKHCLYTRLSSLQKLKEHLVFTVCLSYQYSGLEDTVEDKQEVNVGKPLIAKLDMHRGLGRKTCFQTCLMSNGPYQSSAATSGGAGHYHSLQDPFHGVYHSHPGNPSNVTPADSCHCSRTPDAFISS
T1 sequence (Q9UDY8 with tags, fused parts or gaps limits assumed): as above

Row | biochemical IC50 (in words) [1] | kind of inhibition (time dependence) (LZ-MALT1) | percent MALT1 inhibition reached (LZ-MALT1) | Molecule | response of proliferation [2] | NF-κB induction by PMA/ionomycin stimulation [3] | response of proliferation [4] | response of proliferation [5] | nuclear c-REL (c-REL; isolated nuclei) | whole cell c-REL (c-REL; whole cells)
1 | lower IC50 | reversible inhibition | ~50% | COCCOc1nc(-c2cccc(OC)c2)n(-c2ccc(NC(=O)c3cccc([N+](=O)[O-])c3)cc2)n1 [MI-2A2] |  |  |  |  |  | 
2 |  |  |  | Z-VRPR-FMK [reference compound] | inhibition of proliferation | significantly inhibited NF-κB induction | did not respond | relatively little response | reduced nuclear c-REL | without affecting whole cell levels
